{
  "source": "patent US20210169078A1",
  "about": "“AGENT FOR SUPPRESSING MICROBIAL GROWTH, METHOD FOR PREVENTING MICROBIAL CONTAMINATION, AND BEVERAGE” (priority 2018, published 2021)",
  "format_in_all_cases": "cell-based",
  "key": {"[1]": {"test_system": "Thermo-Acidophilic Bacilli (Alicyclobacillus acidoterrestris ATCC 49025)", "experiment": "Agar plate dilution MIC test", "settings": "ATCC49025, 120 h, YSG agar medium, 50 ± 1 °C, 5 days, aerobic"}, "[2]": {"test_system": "Bacillus cereus (Bacillus cereus IFO 13494)", "experiment": "Agar plate dilution MIC test", "settings": "IFO13494, Mueller Hinton Agar, 37 ± 1 °C, 18 to 20 hours, aerobic"}, "[3]": {"test_system": "Bacillus welchii (Clostridium perfringens JCM 1290)", "experiment": "organism not typed", "settings": "24 h"}, "[4]": {"test_system": "Clostridium difficile (spores) (Clostridium difficile ATCC 9689)", "experiment": "Agar plate dilution MIC test", "settings": "Clostridioides difficile, ATCC9689; Clostridium difficile ATCC 9689 (spores); taurocholic acid-containing BHIA medium, 37 ± 1 °C, 18 to 20 hours, anaerobic"}, "[5]": {"test_system": "Staphylococcus aureus (Staphylococcus aureus subsp. aureus NBRC 12732)", "experiment": "Agar plate dilution MIC test", "settings": "NBRC12732, Mueller Hinton Agar, 37 ± 1 °C, 18 to 20 hours, aerobic"}},
  "data": [
    {"smiles": "COc1cc(O)c(CC=C(C)C)c2c1C(=O)CC(c1ccc(O)cc1)O2", "note": "(centres unmarked) [Isoxanthohumol]", "values": [
      {"measurement": "MIC", "setting": "[1]", "value": 25, "unit": "µg/mL"},
      {"measurement": "MIC", "setting": "[2]", "value": 50, "unit": "µg/mL"},
      {"measurement": "MIC", "setting": "[3]", "value": 50, "unit": "µg/mL"},
      {"measurement": "MIC", "setting": "[4]", "value": 50, "unit": "µg/mL"},
      {"measurement": "MIC", "setting": "[5]", "value": 50, "unit": "µg/mL"}
    ]}
  ]
}
